Data on 2 compounds can be found in US20120213766A1, “Anticancer Compounds from Vernonia Guineensis” (priority 2011, published 2012).

As a reminder, the IC50 is the midpoint of a concentration-inhibition curve.

One assay concerns B16 tumors. Briefly: In vivo antitumor activity. The following applies: B16 tumors in C57 mice; FIG. 5.
Assay [1] has as its system Leukaemia cell line HL-60. As to the kind of experiment: Cell proliferation assay (WST-1, 72 h). In kind it is cell-based. Particulars: Homo sapiens, Leukaemia HL-60, average of two runs. The procedure:
(§1) Breast cancer cells lines MDA-MD-231 and MCF-7, colon cancer cell line HCT-116, Leukaemia cell line HL-60, lung cancer cell line A549, melanoma cancer cell line A375, ovarian cancer cell line OVCAR3 and prostate cancer cell line PC-3 were treated with Compound A (Kuminol) and Compound B (Vernoginin) to determine the effects of the molecules on the proliferation of each cell line.
(§2) Established protocol was used to assay the anti-proliferation effects of these compounds against selected cancer cell lines. Each cell line is grown in RPMI/10% FBS/1% glutamine. On the day the experiment is initiated, cells are trypsinized and plated into 96 well plates in 50 ul of media. Compound is added approximately 18 hours after plating. Cells are plated at a density so that 72 hours post drug addition, the cells are in log phase (500-2000 cells/well). The compounds are solubilized in DMSO at a concentration of 100 mM, aliquoted and stored at −20^C. On the day of drug addition, the compounds are removed from the freezer and serially diluted in DMSO to concentrations as low as 100 nM. The compounds are then diluted 1:1000 into growth media (this is 2× the final concentration) including a DMSO alone control. 50 ul of media/compound is added to each well. The cells are allowed to proliferate for 72 hours. The experiment is terminated using WST-1 (Roche) and absorbance is read at 450 nm/690 nm IC50s are calculated in GraphPad Prism converting all values to percentage of control cell growth. Each cell line is run in duplicate and the average of the two runs is the calculated IC50 of each compound.

Assay [2] relates to prostate cancer cell line PC-3. As to the kind of experiment: Cell proliferation assay (WST-1, 72 h). In kind it is cell-based. The following applies: Prostate PC-3, average of two runs. The method, then: as §1, §2
(Formazan colour is commonly taken as a measure of viable cells.)

Assay [3] concerns Breast cancer cell line MCF-7. Briefly: Cell proliferation assay (WST-1, 72 h). In kind it is cell-based. Particulars: Homo sapiens, MCF7, Breast MCF-7, average of two runs. The procedure:
as §1, §2

The subject of assay [4] is melanoma cancer cell line A375. As to the kind of experiment: Cell proliferation assay (WST-1, 72 h). In kind it is cell-based. Particulars: A-375, Human melanoma A375, average of two runs. The procedure:
as §1, §2

The test system of assay [5] is lung cancer cell line A549. As to the kind of experiment: Cell proliferation assay (WST-1, 72 h). In kind it is cell-based. The following applies: Homo sapiens, average of two runs. The procedure: as §1, §2
Assay [6] relates to ovarian cancer cell line OVCAR3. Briefly: Cell proliferation assay (WST-1, 72 h). In kind it is cell-based. Particulars: Homo sapiens, OVCAR-3, average of two runs. The method, then:
as §1, §2

Assay [7] relates to colon cancer cell line HCT-116. As to the kind of experiment: Cell proliferation assay (WST-1, 72 h). In kind it is cell-based. The following applies: Homo sapiens, Colon HCT-116, average of two runs. The procedure: as §1, §2
The subject of assay [8] is Breast cancer cell line MDA-MB-231. Briefly: Cell proliferation assay (WST-1, 72 h). The following applies: Homo sapiens, Breast MDA-MB-231, average of two runs. In kind it is cell-based. The procedure:
as §1, §2

Assay [9] concerns prostate cancer, human melanoma, breast cancer and others. As to the kind of experiment: Anticancer screen, in vitro cell proliferation assay (MTT). In kind it is cell-based. From the text: The extracts obtained as described above were fractionated by absorbing onto celite and then extracting with increasing polarities of ethyl acetate in hexane. Each fraction obtained was evaporated in-vacuo to remove the solvent and monitored by thin layer chromatography (TLC). […] The dried residue of each fraction was used in the anticancer assay to determine effect on cell proliferation. The active fraction was subjected to dry column chromatography (DCC) using normal phase silica gel activated for visualization with UV 254. This procedure led to the isolation of compounds of Formula I in pure form. The Compound A (Kuminol) and the other fractions obtained were further subjected to anticancer activity screening.
Further purification of second active fraction by use of Waters Sep Pak flash chromatography yielded compounds of the Formula II. Compound B (Vernoginin) inhibited prostate cancer, human melanoma, breast cancer and others in the in vitro cell proliferation assay.
The anticancer screen is based on the highly sensitive 3-(4,5-dimethylthiazol-2-yl)-2, S-diphenyl tetrazolium bromide (MTT) assay. […]
The anticancer activity of the extract obtained as described above was confirmed using the highly proliferative B16 cell line. […] Each of the fractions obtained was evaporated in-vacuo to remove the solvent and monitored by thin layer chromatography (TLC). […]

Assay [10] has as its system human leukaemia cell line HL-60. Briefly: Apoptosis determination (Annexin V and propidium iodide, flow cytometry). In kind it is cell-based. The following applies: 1x, 10x and 50x IC50, 0-24 h. The procedure:
The apoptotic effects of Kuminol (Compound A) and Vernoginin (Compound B) against the human leukaemia cell line HL-60 was determined. Annexin V and Propidium Iodide assay were carried out to determine whether Kuminol and Vernoginin have effect on cell cycle and induction of apoptosis in cancer cells. Cell death can result from either necrosis or apoptosis (programmed cell death).
The human leukaemia cell line HL60 were plated in RPMI1640 at 4×10^6 (2×10^5 cells/ml) and treated with 1×IC50, 10×IC50 and 50×IC50 Kuminol and Vernoginin. For cell cycle, 2 ml of the treated cells were stained with propidium iodide as per the manufactures instruction, aliquots (2 ml) of cells were removed and fixed at 3, 6, 24, 48 and 72 hours. For apoptosis, 2 ml aliquots of cells were removed at 0, 3, 6 and 24 hours and were stained with Annexin V FITC as per the manufacturer's instructions. The presence of apoptosis and cell cycle changes were detected using a Cytomics 500 Beckman Coulter Flow Cytometer (Coulter, Inc. Hialeah, Fla., USA
(In general: Flow cytometry measures light scatter and fluorescence of single cells or particles in a stream.)

As to `C=C1COC(O)/C(C(O/C=C(\C)C=O)C(=C)C(=O)O)=C\CCCC(O)C1=O` (centres unmarked) [Kuminol, 2-[(2,8-Dihydroxy-10-methylene-9-oxo-oxacycloundec-3-en-3-yl)-(2-methyl-3-oxo-propenyloxy)-methyl]-acrylic acid], the “suppression of tumors (in words)” value in the assay with B16 tumors was “suppression effects”. The half-inhibitory concentration (IC50) in assay [1] is 1550 ± 470 nM; in [2], 1000 ± 260 nM; in assay [3], 670 ± 320 nM; in [4], 350 ± 40 nM; in assay [5], 2040 ± 1040 nM; in assay [6] it was 740 ± 310 nM. The IC50 came to 450 ± 7 nM in assay [7] and 1010 ± 200 nM in assay [8]. For the same compound, the “growth inhibition in anticancer assay (in words)” value in assay [9] is on record as “exhibited growth inhibition”. In addition, the “induction of apoptosis (in words)” value in assay [10] was “induce apoptosis”.

With `C=CC(C)(CC(O)C(O)C(=C)C=O)C(O)C(C(=C)C(C)=O)C(=C)C(=O)CCO` (centres unmarked) [Vernoginin, 3,4,7,12,-Tetrahydroxy-6-methyl-2,9-dimethylene-8-(1-methylene-2-oxo-propyl)-10-oxo-6-vinyl-dodecanal], the IC50 was 1120 ± 750 nM in assay [1]; 1560 ± 960 nM in assay [3]; 130 ± 150 nM in [4]; 1130 ± 380 nM in assay [5]; 480 ± 8 nM in assay [6]; 140 ± 150 nM in assay [7]. The compound also yielded an IC50 in assay [8] of 367 ± 30 nM. In assay [9], the “growth inhibition in anticancer assay (in words)” value is “inhibited”. Besides, the “induction of apoptosis (in words)” value in assay [10] is reported as “induce apoptosis”.
